These are literature values, as cited in PubChem BioAssay AID1259409 (Chemical Carcinogenesis Research Information System (CCRIS), 2018).

Values joined by “and” are separate entries in the source; they are usually repeats but may differ in a detail not shown here. Equal values may be shown once.

The series has as its system rodent chemically induced tumor inhibition, incidence and multiplicity. Put plainly: CCRIS tumor inhibitor studies.

Regarding `COc1cc(/C=C/C(=O)O)ccc1O`, the “tumour outcome (control, treated, inhibition, significance)” value was 9/15 (60%), 3/14 (21%), 65%, p<0.05 (Carcinogen: 4-NITROQUINOLINE-1-OXIDE [56-57-5], Dose [Inhibitor]: 500 PPM IN DIET FOR 7 WK BEGINNING 1 WK PRIOR TO FIRST CARCINOGEN DOSE (STUDY DURATION: 32 WK), Route [Inhibitor]: ORAL, Species: RAT, Strain/Sex: F344/MALE, Target Tissue: Type of Lesion: TONGUE: PAPILLOMA OR CARCINOMA, Dose [Carcinogen]: 20 PPM IN DRINKING WATER FOR 5 WK (STUDY DURATION: 32 WK), Promoter: NONE); 1/15 (7%), 2/14 (14%), -100%, not significant (Carcinogen: 4-NITROQUINOLINE-1-OXIDE, 56-57-5, Dose [Inhibitor]: 0, 500 PPM IN DIET FOR 7 WK BEGINNING 1 WK PRIOR TO START OF CARCINOGEN TREATMENT (STUDY DURATION: 32 WK), Route [Inhibitor]: ORAL, Species: RAT, Strain/Sex: F344/MALE, Target Tissue: Type of Lesion: TONGUE: PAPILLOMA, Dose [Carcinogen]: 20 PPM IN DRINKING WATER FOR 5 WK, Promoter: NONE USED); 100%, 94%, 6%, not significant and 100%, 65%, 35%, not calculated (Carcinogen: 7,12-DIMETHYLBENZ[A]ANTHRACENE, 57-97-6, Dose [Inhibitor]: 0, 5 MG IN 200 µL ACETONE 2/WK BEGINNING 10 D POST CARCINOGEN DOSE APPLIED 30-40 MIN PRIOR TO EACH PROMOTER DOSE (STUDY, Route [Inhibitor]: DERMAL, Species: MOUSE, Strain/Sex: ICR/FEMALE, Target Tissue: Type of Lesion: SKIN: PAPILLOMA, Dose [Carcinogen]: 200 NMOL IN 200 µL ACETONE ONCE, Promoter: 12-O-TETRADECANOYLPHORBOL-13-ACETATE, 16561-29-8); 68%, 64%, 6%, not calculated (Carcinogen: 7,12-DIMETHYLBENZ[A]ANTHRACENE, 57-97-6, Dose [Inhibitor]: 10 UMOL IN 200 µL ACETONE/DMSO (90:10) 2/WK FOR 19 WK BEGINNING 1 WK POST CARCINOGEN DOSE (STUDY DURATION: 20 WK), Route [Inhibitor]: DERMAL, Species: MOUSE, Strain/Sex: CD-1/FEMALE, Target Tissue: Type of Lesion: SKIN: PAPILLOMA, Dose [Carcinogen]: 200 NMOL IN 200 µL ACETONE ONCE, Promoter: 12-O-TETRADECANOYLPHORBOL-13-ACETATE, 16561-29-8); 68%, 13%, 81%, not calculated (Carcinogen: 7,12-DIMETHYLBENZ[A]ANTHRACENE, 57-97-6, Dose [Inhibitor]: 50 UMOL IN 200 µL ACETONE/DMSO (90:10) 2/WK FOR 19 WK BEGINNING 1 WK POST CARCINOGEN DOSE (STUDY DURATION: 20 WK), Route [Inhibitor]: DERMAL, Species: MOUSE, Strain/Sex: CD-1/FEMALE, Target Tissue: Type of Lesion: SKIN: PAPILLOMA, Dose [Carcinogen]: 200 NMOL IN 200 µL ACETONE ONCE, Promoter: 12-O-TETRADECANOYLPHORBOL-13-ACETATE, 16561-29-8); 64%, 32%, 50%, p<0.05 (Carcinogen: AZOXYMETHANE [25843-45-2], Dose [Inhibitor]: 0, 250 PPM IN DIET FOR 12 WK (STUDY DURATION: 35 WK), Route [Inhibitor]: ORAL, Species: RAT, Strain/Sex: F344/MALE, Target Tissue: Type of Lesion: INTESTINE: TUMOR, Dose [Carcinogen]: 15 MG/KG 3X/WK FOR 12 WK (STUDY DURATION: 35 WK), Promoter: NONE). For the same compound, the “tumour outcome (control, treated, inhibition, significance)” value (Carcinogen: AZOXYMETHANE [25843-45-2], Dose [Inhibitor]: 0, 250 PPM IN DIET FOR 12 WK (STUDY DURATION: 35 WK), Route [Inhibitor]: ORAL, Species: RAT, Strain/Sex: F344/MALE, Target Tissue: Type of Lesion: SMALL INTESTINE: TUMOR, Dose [Carcinogen]: 15 MG/KG 3X/WK FOR 12 WK (STUDY DURATION: 35 WK), Promoter: NONE) is recorded as 18%, 5%, 72%, not significant; the “tumour outcome (control, treated, inhibition, significance)” value (Carcinogen: AZOXYMETHANE [25843-45-2], Dose [Inhibitor]: 0, 250 PPM IN DIET FOR 23 WK BEGINNING POST LAST CARCINOGEN DOSE (STUDY DURATION: 35 WK), Route [Inhibitor]: ORAL, Species: RAT, Strain/Sex: F344/MALE, Target Tissue: Type of Lesion: INTESTINE: TUMOR, Dose [Carcinogen]: 15 MG/KG 3X/WK FOR 12 WK (STUDY DURATION: 35 WK), Promoter: NONE) is recorded as 64%, 41%, 36%, p<0.05; the “tumour outcome (control, treated, inhibition, significance)” value (Carcinogen: AZOXYMETHANE [25843-45-2], Dose [Inhibitor]: 0, 250 PPM IN DIET FOR 23 WK BEGINNING POST LAST CARCINOGEN DOSE (STUDY DURATION: 35 WK), Route [Inhibitor]: ORAL, Species: RAT, Strain/Sex: F344/MALE, Target Tissue: Type of Lesion: LARGE INTESTINE: TUMOR, Dose [Carcinogen]: 15 MG/KG 3X/WK FOR 12 WK (STUDY DURATION: 35 WK), Promoter: NONE) was 11%, 36%, -227%, not significant; the “tumour outcome (control, treated, inhibition, significance)” value (Carcinogen: AZOXYMETHANE [25843-45-2], Dose [Inhibitor]: 0, 250 PPM IN DIET FOR 23 WK BEGINNING POST LAST CARCINOGEN DOSE (STUDY DURATION: 35 WK), Route [Inhibitor]: ORAL, Species: RAT, Strain/Sex: F344/MALE, Target Tissue: Type of Lesion: SMALL INTESTINE: TUMOR, Dose [Carcinogen]: 15 MG/KG 3X/WK FOR 12 WK (STUDY DURATION: 35 WK), Promoter: NONE) was 18%, 18%, 0%, not significant; the “tumour outcome (control, treated, inhibition, significance)” value (Carcinogen: AZOXYMETHANE [25843-45-2], Dose [Inhibitor]: 0, 500 PPM IN DIET FOR 12 WK (STUDY DURATION: 35 WK), Route [Inhibitor]: ORAL, Species: RAT, Strain/Sex: F344/MALE, Target Tissue: Type of Lesion: INTESTINE: TUMOR, Dose [Carcinogen]: 15 MG/KG 3X/WK FOR 12 WK (STUDY DURATION: 35 WK), Promoter: NONE) is 64%, 32%, 50%, p<0.05; the “tumour outcome (control, treated, inhibition, significance)” value (Carcinogen: AZOXYMETHANE [25843-45-2], Dose [Inhibitor]: 0, 500 PPM IN DIET FOR 12 WK (STUDY DURATION: 35 WK), Route [Inhibitor]: ORAL, Species: RAT, Strain/Sex: F344/MALE, Target Tissue: Type of Lesion: LARGE INTESTINE: TUMOR, Dose [Carcinogen]: 15 MG/KG 3X/WK FOR 12 WK (STUDY DURATION: 35 WK), Promoter: NONE) is reported as 11%, 27%, -146%, not significant. The “tumour outcome (control, treated, inhibition, significance)” value (Carcinogen: AZOXYMETHANE [25843-45-2], Dose [Inhibitor]: 0, 500 PPM IN DIET FOR 12 WK (STUDY DURATION: 35 WK), Route [Inhibitor]: ORAL, Species: RAT, Strain/Sex: F344/MALE, Target Tissue: Type of Lesion: SMALL INTESTINE: TUMOR, Dose [Carcinogen]: 15 MG/KG 3X/WK FOR 12 WK (STUDY DURATION: 35 WK), Promoter: NONE) was 18%, 5%, 72%, not significant and the “tumour outcome (control, treated, inhibition, significance)” value (Carcinogen: AZOXYMETHANE [25843-45-2], Dose [Inhibitor]: 0, 500 PPM IN DIET FOR 23 WK BEGINNING POST LAST CARCINOGEN DOSE (STUDY DURATION: 35 WK), Route [Inhibitor]: ORAL, Species: RAT, Strain/Sex: F344/MALE, Target Tissue: Type of Lesion: INTESTINE: TUMOR, Dose [Carcinogen]: 15 MG/KG 3X/WK FOR 12 WK (STUDY DURATION: 35 WK), Promoter: NONE) is recorded as 64%, 41%, 36%, not significant.
